Measurements published in US12599611B2, “Methods and compositions for treating seizure disorders in pediatric patients” (Neurelis, Inc., priority 2021, dated 2026).

Tested on: beta frequency by EEG
Assay: EEG monitoring of beta rhythm / beta frequency after diazepam administration
Settings: after intranasal administration of 20 mg of diazepam via an intranasal composition

CN1C(=O)CN=C(c2ccccc2)c2cc(Cl)ccc21 [diazepam, 7-chloro-1,3-dihydro-1-methyl-5-phenyl-1,4-benzodiazepin-2-one]
time to changes in beta frequency (EEG): ≤ 10 min
